The test system of one assay is HBV. The assay can be described thus: Determination of HBV DNA from the supernatants of HepAD38 cells (anti-HBV activity). Format: cell-based, hepatitis B virus. As to conditions: Hepatitis B virus, 144 h; HBV DNA in HepAD38 supernatant at day 6; read-out: Cell Activity (EC50). How it is done:
Determination of HBV DNA from the Supernatants of HepAD38 Cells
The anti-HBV activity was analysed in the stable transfected cell line HepAD38, which has been described to secrete high levels of HBV virion particles (Ladner et al., 1997). In brief, HepAD38 cells were cultured at 37° C. at 5% CO2 and 95% humidity in 200 μl maintenance medium, which was Dulbecco's modified Eagle's medium/Nutrient Mixture F-12 (Gibco, Karlsruhe), 10% fetal bovine serum (PAN Biotech Aidenbach) supplemented with 50 μg/ml penicillin/streptomycin (Gibco, Karlsruhe), 2 mM L-glutamine (PAN Biotech, Aidenbach), 400 μg/ml G418 (AppliChem, Darmstadt) and 0.3 μg/ml tetracycline. Cells were subcultured once a week in a 1:5 ratio, but were usually not passaged more than ten times. For the assay 60,000 cells were seeded in maintenance medium without any tetracycline into each well of a 96-well plate and treated with serial half-log dilutions of test compound. To minimize edge effects the outer 36 wells of the plate were not used but were filled with assay medium. On each assay plate six wells for the virus control (untreated HepAD38 cells) and six wells for the cell control (HepAD38 cells treated with 0.3 μg/ml tetracycline) were allocated, respectively. In addition, one plate set with reference inhibitors like BAY 41-4109, entecavir, and lamivudine instead of screening compounds were prepared in each experiment. In general, experiments were performed thrice in triplicates. At day 6 HBV DNA from 100 μl filtrated cell culture supernatant (AcroPrep Advance 96 Filter Plate, […] Supor membran, PALL GmbH, Dreieich) was automatically purified on the MagNa Pure LC instrument using the MagNA Pure 96 DNA and Viral NA Small Volume Kit (Roche Diagnostics, Mannheim) according to the instructions of the manufacturer. EC50 values were calculated from relative copy numbers of HBV DNA. In brief, 5 μl of the 100 μl eluate containing HBV DNA were subjected to PCR LC480 Probes Master Kit (Roche) together with 1 μM antisense primer […], 0.5 μM sense primer […], 0.3 μM hybprobes […]-FL and LC640-[…]-PH (TIBMolBiol, Berlin) to a final volume of 12.5 μl. The PCR was performed on the Light Cycler 480 real time system (Roche Diagnostics, Mannheim) using the following protocol: Pre-incubation for 1 min at 95° C., amplification: 40 cycles×(10 sec at 95° C., 50 sec at 60° C., 1 sec at 70° C.), cooling for 10 sec at 40° C. Viral load was quantitated against known standards using HBV plasmid DNA of pCH-9/3091 (Nassal et al., 1990, Cell 63: 1357-1363) and the LightCycler 480 SW 1.5 software (Roche Diagnostics, Mannheim) and EC50 values were calculated using non-linear regression with GraphPad Prism 6 (GraphPad Software Inc., La Jolla, USA).

Another assay has as its target HBV core protein (UniProt P03146). It counts as biochemical. As to conditions: read-out: Assembly Activity (IC50); BODIPY-FL labelled core protein, assembly started with NaCl, read after 6 min. How it is done: Biochemical Capsid Assembly Assay
The screening for assembly effector activity was done based on a fluorescence quenching assay published by Zlotnick et al. (2007). The C-terminal truncated core protein containing 149 amino acids of the N-terminal assembly domain was fused to a unique cysteine residue at position 150 and was expressed in E. coli using the pET expression system (Merck Chemicals, Darmstadt). Purification of core dimer protein was performed using a sequence of size exclusion chromatography steps. In brief, the cell pellet from 1 L BL21 (DE3) Rosetta2 culture expressing the coding sequence of core protein cloned NdeI/XhoI into expression plasmid pET21b was treated for 1 h on ice with a native lysis buffer (Qproteome Bacterial Protein Prep Kit; Qiagen, Hilden). After a centrifugation step the supernatant was precipitated during 2 h stirring on ice with 0.23 g/ml of solid ammonium sulfate. Following further centrifugation the resulting pellet was resolved in buffer A (100 mM Tris, pH 7.5; 100 mM NaCl; 2 mM DTT) and was subsequently loaded onto a buffer A equilibrated CaptoCore 700 column (GE HealthCare, Frankfurt). The column flow through containing the assembled HBV capsid was dialyzed against buffer N (50 mM NaHCO3 pH 9.6; 5 mM DTT) before urea was added to a final concentration of 3M to dissociate the capsid into core dimers for 1.5 h on ice. The protein solution was then loaded onto a 1 L Sephacryl S300 column. After elution with buffer N core dimer containing fractions were identified by SDS-PAGE and subsequently pooled and dialyzed against 50 mM HEPES pH 7.5; 5 mM DTT. To improve the assembly capacity of the purified core dimers a second round of assembly and disassembly starting with the addition of 5 M NaCl and including the size exclusion chromatography steps described above was performed. From the last chromatography step core dimer containing fractions were pooled and stored in aliquots at concentrations between 1.5 to 2.0 mg/ml at −80° C.
Immediately before labelling the core protein was reduced by adding freshly prepared DTT in a final concentration of 20 mM. After 40 min incubation on ice storage buffer and DTT was removed using a Sephadex G-25 column (GE HealthCare, Frankfurt) and 50 mM HEPES, pH 7.5. For labelling 1.6 mg/ml core protein was incubated at 4° C. and darkness overnight with BODIPY-FL maleimide (Invitrogen, Karlsruhe) in a final concentration of 1 mM. After labelling the free dye was removed by an additional desalting step using a Sephadex G-25 column. Labelled core dimers were stored in aliquots at 4° C. In the dimeric state the fluorescence signal of the labelled core protein is high and is quenched during the assembly of the core dimers to high molecular capsid structures. The screening assay was performed in black 384 well microtiter plates in a total assay volume of 10 μl using 50 mM HEPES pH 7.5 and 1.0 to 2.0 μM labelled core protein. Each screening compound was added in 8 different concentrations using a 0.5 log-unit serial dilution starting at a final concentration of 100 μM, 31.6 μM or 10 μM. In any case the DMSO concentration over the entire microtiter plate was 0.5%. The assembly reaction was started by the injection of NaCl to a final concentration of […] which induces the assembly process to approximately 25% of the maximal quenched signal. 6 min after starting the reaction the fluorescence signal was measured using a Clariostar plate reader (BMG Labtech, Ortenberg) with an excitation of 477 nm and an emission of 525 nm. As 100% and 0% assembly control HEPES buffer containing 2.5 M and 0 M NaCl was used. Experiments were performed thrice in triplicates. EC50 values were calculated by non-linear regression analysis using the Graph Pad Prism 6 software (GraphPad Software, La Jolla, USA).

HBV core protein, sequence (P03146 whole entry, looked up, the tested form may be a part): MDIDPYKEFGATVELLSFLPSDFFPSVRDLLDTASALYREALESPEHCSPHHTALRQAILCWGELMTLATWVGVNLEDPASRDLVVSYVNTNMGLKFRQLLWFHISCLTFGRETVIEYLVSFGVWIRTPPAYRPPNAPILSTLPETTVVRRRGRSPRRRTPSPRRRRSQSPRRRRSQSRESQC

`CC(C)(C)C(=O)Nc1nc2c(s1)CN(C(=O)c1cc3ccccc3[nH]1)CC2` [Example 275, N-[5-(1H-indole-2-carbonyl)-4H,5H,6H,7H-[1,3]thiazolo[5,4-c]pyridin-2-yl]-2,2-dimethylpropanamide]: the EC50 – broadly, the concentration at which the effect is half-maximal – in the assay with HBV was less than 1 µM. Further, at HBV core protein, the IC50 – broadly, the concentration needed to halve the response being measured – fell in the range of 5 to 10 µM.

With `Cc1nc2c(s1)CN(C(=O)c1cc3cccc(OC(F)F)c3[nH]1)CC2` [Example 182, 7-(difluoromethoxy)-2-{2-methyl-4H,5H,6H,7H-[1,3]thiazolo[5,4-c]pyridine-5-carbonyl}-1H-indole], the EC50 with HBV is 1 to 10 µM. For the same compound, the IC50 at HBV core protein was less than 100 µM.

Turning to `O=C(c1cc2c(F)cc(F)cc2[nH]1)N1CCc2nc(N[C@H]3CC[C@@H](O)CC3)sc2C1` [Example 344, (1s,4s)-4-{[5-(4,6-difluoro-1H-indole-2-carbonyl)-4H,5H,6H,7H-[1,3]thiazolo[5,4-c]pyridin-2-yl]amino}cyclohexan-1-ol], the EC50 with HBV was less than 1 µM. For the same compound, at HBV core protein, the half-inhibitory concentration (IC50) is 5 to 10 µM.

With `O=C(c1cc2ccc(Br)cc2[nH]1)N1CCc2nc(NCC3(O)CCC3)sc2C1` [Example 365, 1-({[5-(6-bromo-1H-indole-2-carbonyl)-4H,5H,6H,7H-[1,3]thiazolo[5,4-c]pyridin-2-yl]amino}methyl)cyclobutan-1-ol], the EC50 in the assay with HBV was less than 1 µM. The half-inhibitory concentration (IC50) at HBV core protein is less than 5 µM.

For `Cc1nc2c(s1)CN(C(=O)c1cc3c(Cl)cccc3[nH]1)CC2` [Example 211, 4-chloro-2-{2-methyl-4H,5H,6H,7H-[1,3]thiazolo[5,4-c]pyridine-5-carbonyl}-1H-indole], the EC50 in the assay with HBV is less than 1 µM. For the same compound, the IC50 on HBV core protein is less than 5 µM.

For the compound `CC(O)CNc1nc2c(s1)CN(C(=O)c1cc3ccccc3[nH]1)CC2` (stereo not shown) [Example 178, 1-{[5-(1H-indole-2-carbonyl)-4H,5H,6H,7H-[1,3]thiazolo[5,4-c]pyridin-2-yl]amino}propan-2-ol], the EC50 with HBV was less than 1 µM. For the same compound, on HBV core protein, the IC50 was less than 5 µM.

Turning to `Cc1cc(F)cc2[nH]c(C(=O)N3CCc4nc(NC(=O)C5CCOCC5)sc4C3)cc12` [Example 321, N-[5-(6-fluoro-4-methyl-1H-indole-2-carbonyl)-4H,5H,6H,7H-[1,3]thiazolo[5,4-c]pyridin-2-yl]oxane-4-carboxamide], the EC50 in the assay on HBV was less than 1 µM. For the same compound, the IC50 at HBV core protein was less than 5 µM.

Take `O=C(c1cc2ccccc2[nH]1)N1CCc2nc(NC[C@@H]3C[C@@H]4CC[C@H]3O4)sc2C1` (racemic) [Example 33, (+/−)-trans-5-(1H-indole-2-carbonyl)-N-{[(1R,2S,4S)-7-oxabicyclo[2.2.1]heptan-2-yl]methyl}-4H,5H,6H,7H-[1,3]thiazolo[5,4-c]pyridin-2-amine]: the EC50 in the assay on HBV is less than 1 µM. The IC50 at HBV core protein is less than 5 µM.

With `COc1cccc2[nH]c(C(=O)N3CCc4nc(C)sc4C3)cc12` [Example 194, 4-methoxy-2-{2-methyl-4H,5H,6H,7H-[1,3]thiazolo[5,4-c]pyridine-5-carbonyl}-1H-indole], the EC50 in the assay on HBV is less than 100 µM. Also, the concentration for half-maximal inhibition (IC50) on HBV core protein is less than 100 µM.

In the case of `O=C(c1cc2ccccc2[nH]1)N1CCc2nc(NCC3(O)COC3)sc2C1` [Example 44, 3-({[5-(1H-indole-2-carbonyl)-4H,5H,6H,7H-[1,3]thiazolo[5,4-c]pyridin-2-yl]amino}methyl)oxetan-3-ol], in the assay with HBV, the EC50 is less than 1 µM. For the same compound, the half-maximal inhibitory concentration (IC50) on HBV core protein was less than 5 µM.

Regarding `O=C(c1cc2ccccc2[nH]1)N1CCc2nc(NCC3CC3)sc2C1` [Example 96, N-(cyclopropylmethyl)-5-(1H-indole-2-carbonyl)-4H,5H,6H,7H-[1,3]thiazolo[5,4-c]pyridin-2-amine], in the assay on HBV, the EC50 is less than 1 µM. Besides, at HBV core protein, the half-inhibitory concentration (IC50) was less than 5 µM.

Consider `O=C(c1cc2ccccc2[nH]1)N1CCc2nc(NCC3CCCOC3)sc2C1` (stereo not shown) [Example 270, 5-(1H-indole-2-carbonyl)-N-[(oxan-3-yl)methyl]-4H,5H,6H,7H-[1,3]thiazolo[5,4-c]pyridin-2-amine], for which the EC50 in the assay on HBV is less than 1 µM. Further, the half-inhibitory concentration (IC50) on HBV core protein is less than 5 µM.

For the compound `O=C(c1cc2ccccc2[nH]1)N1CCc2nc(NCC3(O)CC3)sc2C1` [Example 405, 1-({[5-(1H-indole-2-carbonyl)-4H,5H,6H,7H-[1,3]thiazolo[5,4-c]pyridin-2-yl]amino}methyl)cyclopropan-1-ol], the EC50 with HBV was less than 1 µM. At HBV core protein, the IC50 was less than 5 µM.

Consider `Cc1nc2c(s1)CN(C(=O)c1cc3c(C)cccc3[nH]1)CC2` [Example 184, 4-methyl-2-{2-methyl-4H,5H,6H,7H-[1,3]thiazolo[5,4-c]pyridine-5-carbonyl}-1H-indole], for which the EC50 in the assay on HBV was less than 1 µM. The IC50 on HBV core protein is less than 5 µM.

Regarding `Cc1nc2c(s1)CN(C(=O)c1cc3cccc(OC(F)(F)F)c3[nH]1)CC2` [Example 183, 2-{2-methyl-4H,5H,6H,7H-[1,3]thiazolo[5,4-c]pyridine-5-carbonyl}-7-(trifluoromethoxy)-1H-indole], the concentration for a half-maximal effect (EC50) in the assay on HBV was less than 100 µM. The IC50 on HBV core protein was less than 100 µM.

For the compound `Nc1nc2c(s1)CN(C(=O)c1cc3cccc(OC(F)F)c3[nH]1)CC2` [Example 173, 5-(7-(difluoromethoxy)-1H-indole-2-carbonyl)-4H,5H,6H,7H-[1,3]thiazolo[5,4-c]pyridin-2-amine], the EC50 in the assay on HBV lay in the range of 1 to 10 µM. The half-inhibitory concentration (IC50) on HBV core protein was less than 5 µM.

Take `CC(=O)N1CCOC(CNc2nc3c(s2)CN(C(=O)c2cc4ccccc4[nH]2)CC3)C1` (stereo not shown) [Example 242, 1-[2-({[5-(1H-indole-2-carbonyl)-4H,5H,6H,7H-[1,3]thiazolo[5,4-c]pyridin-2-yl]amino}methyl)morpholin-4-yl]ethan-1-one]: the EC50 in the assay on HBV is less than 1 µM. The IC50 at HBV core protein fell in the range of 5 to 10 µM.

For the origin of these results see patent publication US11267825B2 (AICURIS GMBH & CO. KG, priority 2017, dated 2022).
